Laboratory results reported in patent EP0048613B1, “4-0-Substituted -2-deoxystreptamine aminoglycoside derivatives, their preparation and formulations containing them” (ELI LILLY AND COMPANY, priority 1980, dated 1982).
In brackets after ≈: the same amount, converted by molar mass. Read-outs that look alike come from different tables or passages of the source.

Key:
B. subtilis X12 = test: Bioautography of thin layer chromatography plate; assay type: cell-based; settings: bioautography of TLC plate of the reaction mixture against B. subtilis X12
Description: Apramycin (54 mg, 0.1 mmol) was dissolved in water (1 ml). Nickel acetate tetrahydrate (100 mg, 0.4 mmol) was added and this solution was diluted with dimethylformamide (5 mi). The mixture was treated with 1-iodo-n-butane (0.115 ml, 1 mmol) and this reaction mixture was stirred at room temperature for 4 days.

[1] = system: Staphylococcus aureus 3055; test: Subcutaneous therapy of experimental bacterial infection in mice; assay type: in vivo; settings: Staphylococcus aureus, 3055, sc, subcutaneous doses at 1 and 5 hours post infection, read-out: Effective dose (ED50)
Description: Table II illustrates the effective dose (ED50, effective dose to protect 50 percent of the test animals) for representative compounds of this invention against an experimental bacterial infection in mice.
The EDso values were determined as described by W. E. Wick et al., Journal of Bacteriology, 81 [No. 2], 233-235 (1961).

Serratia marcescens SE3 = test: MIC, standard agar dilution test; assay type: cell-based; settings: read-out: Minimum inhibitory concentration
Source text: (§1) The antibacterial activity of the deprotected compounds of this invention is illustrated by the following in vitro and in vivo test data obtained with representative compounds. In Table I, the minimum inhibitory concentration (MIC) for representative compounds against a wide range of gram-positive and gram-negative bacteria is presented. The MIC values were obtained by the standard agar dilution test.

[2] = system: Enterobacter aerogenes C32; test: MIC, standard agar dilution test; assay type: cell-based; settings: Klebsiella aerogenes, read-out: Minimum inhibitory concentration
Source text: as §1

[3] = system: Streptococcus pyogenes C203; test: MIC, standard agar dilution test; assay type: cell-based; settings: read-out: Minimum inhibitory concentration
Source text: as §1

Shigella sonnei N9 = test: MIC, standard agar dilution test; assay type: cell-based; settings: read-out: Minimum inhibitory concentration
Source text: as §1

Escherichia coli EC14 = test: MIC, standard agar dilution test; assay type: cell-based; settings: read-out: Minimum inhibitory concentration
Source text: as §1

Proteus morganii PR15 = test: MIC, standard agar dilution test; assay type: cell-based; settings: Morganella morganii, read-out: Minimum inhibitory concentration
Source text: as §1

[4] = system: Enterobacter aerogenes X68; test: MIC, standard agar dilution test; assay type: cell-based; settings: Klebsiella aerogenes, read-out: Minimum inhibitory concentration
Source text: as §1

[5] = system: Enterobacter aerogenes EB17; test: MIC, standard agar dilution test; assay type: cell-based; settings: Klebsiella aerogenes, read-out: Minimum inhibitory concentration
Source text: as §1

[6] = system: Bordetella bronchiseptica 16; test: MIC, standard agar dilution test; assay type: cell-based; settings: read-out: Minimum inhibitory concentration
Source text: as §1

Proteus inconstans PR33 = test: MIC, standard agar dilution test; assay type: cell-based; settings: Providencia alcalifaciens, read-out: Minimum inhibitory concentration
Source text: as §1

[7] = system: Enterobacter cloacae 265A; test: MIC, standard agar dilution test; assay type: cell-based; settings: read-out: Minimum inhibitory concentration
Source text: as §1

[8] = system: Staphylococcus aureus X400; test: MIC, standard agar dilution test; assay type: cell-based; settings: read-out: Minimum inhibitory concentration
Source text: as §1

Proteus rettgeri PR7 = test: MIC, standard agar dilution test; assay type: cell-based; settings: Providencia rettgeri, read-out: Minimum inhibitory concentration
Source text: as §1

[9] = system: Klebsiella pneumoniae X26; test: MIC, standard agar dilution test; assay type: cell-based; settings: read-out: Minimum inhibitory concentration
Source text: as §1

[10] = system: Staphylococcus aureus V41; test: MIC, standard agar dilution test; assay type: cell-based; settings: read-out: Minimum inhibitory concentration
Source text: as §1

Escherichia coli N10 = test: MIC, standard agar dilution test; assay type: cell-based; settings: read-out: Minimum inhibitory concentration
Source text: as §1

[11] = system: Streptococcus group D X66; test: MIC, standard agar dilution test; assay type: cell-based; settings: DX66, read-out: Minimum inhibitory concentration
Source text: as §1

Escherichia coli TEM = test: MIC, standard agar dilution test; assay type: cell-based; settings: Escherichia coli, read-out: Minimum inhibitory concentration
Source text: as §1

[12] = system: Pseudomonas aeruginosa X528; test: MIC, standard agar dilution test; assay type: cell-based; settings: read-out: Minimum inhibitory concentration
Source text: as §1

Proteus rettgeri C24 = test: MIC, standard agar dilution test; assay type: cell-based; settings: Providencia rettgeri, read-out: Minimum inhibitory concentration
Source text: as §1

Hemophilus influenzae 76 = test: MIC, standard agar dilution test; assay type: cell-based; settings: Haemophilus influenzae, read-out: Minimum inhibitory concentration
Source text: as §1

[13] = system: Citrobacter freundii CF17; test: MIC, standard agar dilution test; assay type: cell-based; settings: read-out: Minimum inhibitory concentration
Source text: as §1

Serratia marcescens X99 = test: MIC, standard agar dilution test; assay type: cell-based; settings: read-out: Minimum inhibitory concentration
Source text: as §1

[14] = system: Hemophilus influenzae C.L.; test: MIC, standard agar dilution test; assay type: cell-based; settings: Haemophilus influenzae, read-out: Minimum inhibitory concentration
Source text: as §1

[15] = system: Streptococcus group D 9960; test: MIC, standard agar dilution test; assay type: cell-based; settings: D9960, read-out: Minimum inhibitory concentration
Source text: as §1

[16] = system: Pseudomonas aeruginosa Ps18; test: MIC, standard agar dilution test; assay type: cell-based; settings: read-out: Minimum inhibitory concentration
Source text: as §1

[17] = system: Klebsiella pneumoniae KAE; test: MIC, standard agar dilution test; assay type: cell-based; settings: read-out: Minimum inhibitory concentration
Source text: as §1

[18] = system: Streptococcus pneumoniae Park I; test: MIC, standard agar dilution test; assay type: cell-based; settings: Streptococcus pneumoniae; read-out: Minimum inhibitory concentration
Source text: as §1

[19] = system: Staphylococcus aureus S13E; test: MIC, standard agar dilution test; assay type: cell-based; settings: Staphylococcus aureus, S13E, read-out: Minimum inhibitory concentration
Source text: as §1

Enterobacter cloacae EB5 = test: MIC, standard agar dilution test; assay type: cell-based; settings: read-out: Minimum inhibitory concentration
Source text: as §1

[20] = system: Staphylococcus aureus X1.1; test: MIC, standard agar dilution test; assay type: cell-based; settings: read-out: Minimum inhibitory concentration
Source text: as §1

[21] = system: Salmonella typhimurium 1335; test: MIC, standard agar dilution test; assay type: cell-based; settings: Salmonella enterica, read-out: Minimum inhibitory concentration
Source text: as §1

[22] = system: Salmonella heidelberg X514; test: MIC, standard agar dilution test; assay type: cell-based; settings: Salmonella enterica, read-out: Minimum inhibitory concentration
Source text: as §1

[23] = system: Pseudomonas aeruginosa X239; test: MIC, standard agar dilution test; assay type: cell-based; settings: read-out: Minimum inhibitory concentration
Source text: as §1

[24] = system: Staphylococcus epidermidis EPI2; test: MIC, standard agar dilution test; assay type: cell-based; settings: read-out: Minimum inhibitory concentration
Source text: as §1

[25] = system: Staphylococcus epidermidis EPI1; test: MIC, standard agar dilution test; assay type: cell-based; settings: Staphylococcus epidermidis, EPI1; read-out: Minimum inhibitory concentration
Source text: as §1

Compound | zone of inhibition (B. subtilis X12) | MIC (Serratia marcescens SE3) [mg/L] | MIC [2] [mg/L] | MIC [3] [mg/L] | MIC (Shigella sonnei N9) [mg/L] | MIC (Escherichia coli EC14) [mg/L] | MIC (Proteus morganii PR15) [mg/L] | MIC [4] [mg/L] | MIC [5] [mg/L] | MIC [6] [mg/L] | MIC (Proteus inconstans PR33) [mg/L] | MIC [7] [mg/L] | MIC [8] [mg/L] | MIC (Proteus rettgeri PR7) [mg/L] | MIC [9] [mg/L] | MIC [10] [mg/L] | MIC (Escherichia coli N10) [mg/L] | MIC [11] [mg/L] | MIC (Escherichia coli TEM) [mg/L] | MIC [12] [mg/L] | further results
2'-N-(n-Butyl)apramycin [Example 6] | a zone of inhibition |  |  |  |  |  |  |  |  |  |  |  |  |  |  |  |  |  |  |  | 
2'-N-Allylapramycin [Example 8] | a good zone of inhibition |  |  |  |  |  |  |  |  |  |  |  |  |  |  |  |  |  |  |  | 
2'-N-Benzylapramycin [Example 7] | a zone of inhibition |  |  |  |  |  |  |  |  |  |  |  |  |  |  |  |  |  |  |  | 
CNC1C(OC2OC(CO)C(N)C(O)C2O)OC2CC(NC(=O)CN)C(OC3C(N)CC(N)C(O)C3O)OC2C1O (centres unmarked) [Test compound 3, 2′-N-Glycylapramycin] |  | 32 (≈ 53.6 µM) | 16 (≈ 26.8 µM) | 64 (≈ 107 µM) | 16 (≈ 26.8 µM) | 32 (≈ 53.6 µM) | 128 (≈ 215 µM) | 16 (≈ 26.8 µM) | 16 (≈ 26.8 µM) | 128 (≈ 215 µM) | 32 (≈ 53.6 µM) | 32 (≈ 53.6 µM) | 128 (≈ 215 µM) | 32 (≈ 53.6 µM) | 8 (≈ 13.4 µM) | 64 (≈ 107 µM) | 64 (≈ 107 µM) | > 128 | 8 (≈ 13.4 µM) | 128 (≈ 215 µM) | ED50 ([1]; challenged with 1794 LD50's): 30 mg/kg; MIC (Proteus rettgeri C24): 16 mg/L (≈ 26.8 µM); MIC (Hemophilus influenzae 76): 32 mg/L (≈ 53.6 µM); MIC [13]: 64 mg/L (≈ 107 µM); MIC (Serratia marcescens X99): 16 mg/L (≈ 26.8 µM); MIC [14]: 16 mg/L (≈ 26.8 µM); MIC [15]: > 128 mg/L; MIC [16]: 128 mg/L (≈ 215 µM); MIC [17]: 16 mg/L (≈ 26.8 µM); MIC [18]: 128 mg/L (≈ 215 µM); MIC [19]: 32 mg/L (≈ 53.6 µM); MIC (Enterobacter cloacae EB5): 32 mg/L (≈ 53.6 µM); MIC [20]: 16 mg/L (≈ 26.8 µM); MIC [21]: 64 mg/L (≈ 107 µM); MIC [22]: 32 mg/L (≈ 53.6 µM); MIC [23]: 64 mg/L (≈ 107 µM); MIC [24]: 8 mg/L (≈ 13.4 µM); MIC [25]: 16 mg/L (≈ 26.8 µM)
CCNC1CC2OC(OC3OC(CO)C(N)C(O)C3O)C(NC)C(O)C2OC1OC1C(N)CC(N)C(O)C1O (centres unmarked) [Test compound 4, 2′-N-ethylapramycin] |  | 16 (≈ 28.2 µM) | 8 (≈ 14.1 µM) | 16 (≈ 28.2 µM) | 8 (≈ 14.1 µM) | 8 (≈ 14.1 µM) | 32 (≈ 56.4 µM) | 8 (≈ 14.1 µM) | 8 (≈ 14.1 µM) | 32 (≈ 56.4 µM) | 8 (≈ 14.1 µM) | 32 (≈ 56.4 µM) | 16 (≈ 28.2 µM) | 8 (≈ 14.1 µM) | 4 (≈ 7.05 µM) | 8 (≈ 14.1 µM) | 8 (≈ 14.1 µM) | 128 (≈ 225 µM) | 2 (≈ 3.52 µM) | 64 (≈ 113 µM) | ED50 ([1]; challenged with 68.1 LD50's): < 4.35 mg/kg; MIC (Proteus rettgeri C24): 8 mg/L (≈ 14.1 µM); MIC (Hemophilus influenzae 76): 16 mg/L (≈ 28.2 µM); MIC [13]: 16 mg/L (≈ 28.2 µM); MIC (Serratia marcescens X99): 8 mg/L (≈ 14.1 µM); MIC [14]: 16 mg/L (≈ 28.2 µM); MIC [15]: > 128 mg/L; MIC [16]: 32 mg/L (≈ 56.4 µM); MIC [17]: 8 mg/L (≈ 14.1 µM); MIC [18]: 16 mg/L (≈ 28.2 µM); MIC [19]: 8 mg/L (≈ 14.1 µM); MIC (Enterobacter cloacae EB5): 16 mg/L (≈ 28.2 µM); MIC [20]: 4 mg/L (≈ 7.05 µM); MIC [21]: 8 mg/L (≈ 14.1 µM); MIC [22]: 16 mg/L (≈ 28.2 µM); MIC [23]: 64 mg/L (≈ 113 µM); MIC [24]: 2 mg/L (≈ 3.52 µM); MIC [25]: 8 mg/L (≈ 14.1 µM)
